According to publication PMC9102431, “Natural Compound Shikonin Is a Novel PAK1 Inhibitor and Enhances Efficacy of Chemotherapy against Pancreatic Cancer Cells” (Molecules, 2022):

Molecular target: PAK1 (Homo sapiens, UniProt Q13153)
Experiment: ADP-Glo kinase assay with human recombinant PAK1 (also labchip-based screen)
Type: biochemical

Sequence of PAK1 (Q13153 2-545): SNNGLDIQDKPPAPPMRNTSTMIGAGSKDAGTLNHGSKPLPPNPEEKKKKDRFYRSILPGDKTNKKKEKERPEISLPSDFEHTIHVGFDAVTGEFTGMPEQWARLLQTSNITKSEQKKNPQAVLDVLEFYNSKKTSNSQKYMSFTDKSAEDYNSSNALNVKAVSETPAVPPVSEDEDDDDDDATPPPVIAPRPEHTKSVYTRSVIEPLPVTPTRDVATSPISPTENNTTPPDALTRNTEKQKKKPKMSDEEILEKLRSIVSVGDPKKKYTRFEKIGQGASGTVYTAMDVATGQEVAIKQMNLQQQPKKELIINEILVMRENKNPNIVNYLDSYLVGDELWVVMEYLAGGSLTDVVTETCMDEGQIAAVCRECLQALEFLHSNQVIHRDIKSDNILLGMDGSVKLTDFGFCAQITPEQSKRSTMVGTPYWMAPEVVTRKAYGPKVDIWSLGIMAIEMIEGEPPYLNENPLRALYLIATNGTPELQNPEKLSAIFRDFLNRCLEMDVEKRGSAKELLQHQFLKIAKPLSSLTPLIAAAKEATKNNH

CC(C)=CC[C@@H](O)C1=CC(=O)c2c(O)ccc(O)c2C1=O [shikonin]
IC50: 7.252 ± 0.054 µM
